The values that follow come from patent US20220282285A1, “GENETICALLY-EDITED IMMUNE CELLS AND METHODS OF THERAPY” (REGENTS OF THE UNIVERSITY OF MINNESOTA, priority 2019, published 2022).

Test [1] relates to activated T cell culture. The test is described as follows: Cell clumping / T cell survival 24 hours following electroporation with plasmid donor vector. Type of test: cell-based, human. The conditions noted are these: DNase in culture medium vs none. Here is the method: • (a) Stimulated T cells are electroporated using the Neon Transfection System (100 uL or 10 ul Kit, Invitrogen, Life Technologies). • (b) Pellet cells and wash once with PBS or T buffer. • (c) Resuspend cells at a density of […] in 10 uL of T buffer for 10 ul tip, and 1×10^6 cells in 100 ul T buffer for 100 ul tips. • (d) Add specified mass of mRNA/DNA and electroporated at 1400 V, 10 ms, 3 pulses. • a. For knockout using all mRNA: • i. 100 ul tip: 15 ug Cas9 mRNA, 10 ug gRNA-RNA • ii. 10 ul tip: 1.5 ug Cas9 mRNA, 1 ug gRNA-RNA • b. When including plasmid donor for knock-in: • i. 100 ul tip: 5-20 ug plasmid • ii. 10 ul tip: 0.5-2 ug plasmid • c. For sequential electroporations: • On 0 hr timepoint deliver the amount of Cas9 specified in “a” • ii. At time point 0 hr and 6-24 hr, deliver gRNA and plasmid together in amounts specified in “a” and “b”. • (e) After transfection, plate cells at 3000 cells/ul in antibiotic free culture media containing 10 ug/ml DNase I and incubate at 37° C. in 5% CO2 for ˜20 minutes. • (f) After recovery period, add 2 times volume of antibiotic containing media to well and culture at 37° C. in 5% CO2. rAAV Transduction of CD3+ T Cells • (a) Thaw rAAV on ice and mix well prior to addition to cells. • (b) Add specified MOI at the following timepoints post-electroporation • a. For Cas9 mRNA edited cells: • i. Add virus 4-6 hours post • b. […]

In test [2] the test system is T cells from donors 055330, 119866, 120534. As to the kind of experiment: FACs analysis of electroporation efficiency (mTCR), single or sequential electroporation. Type of test: cell-based, human.
Test [3] relates to primary T cells. As to the kind of experiment: Transfection efficiency: GFP or mTCR transgene expression by FACs on day 7 / day 14 post electroporation. Type of test: cell-based, human. The conditions noted are these: for stable transgene expression (percent GFP or mTCR): 14 days post-transfection, electroporated on day 0 or day 1 post stimulation (FIG. 18); for transgene expression (day 7 percent GFP or mTCR expression): T cells electroporated on day 0 or day 1 post stimulation (FIG. 17); for transgene expression (percent GFP+ or mTCR+ cells): day 14 post electroporation of plasmid donor on day 0 or day 1, Cas9, gRNA (FIG. 16). Here is the method:
Electroporated T cells are analyzed by flow cytometry ˜24-48 hours after transfection to test for expression of GFP or other fluorochrome (marker for transgene expression). For knockout experiments, analysis for loss of target protein is conducted between 7-9 days post transfection. For knock-in experiments, measure marker expression on day 7 and day 14. Cells are prepared by washing with chilled 1×PBS with 0.5% FBS and stain according to manufacturer recommendations for each antibody.
Transfection efficiency was also assessed by examining the stable expression of the transgenes introduced by the plasmids. FIG. 15C is a graph showing percentage of GFP-expressing cells in each group of cells, and FIG. 15D is a graph showing percentage of mTCR-expressing cells in each group of cells. In these experiments, the primary T cells were transfected through electroporation with plasmid donor expressing GFP or mTCR on day 0 or 1, FACs was performed to examine the transgene expression on day 14 post electroporation.
This example examined the effects of treatment of electroporated T cells with DNase, RS-1, or both DNase and RS-1, on transfection efficiency. Primary T cells were transfected through electroporation with plasmid donor expressing GFP or mTCR on day 0 or 1, FACs was performed to examine the transgene expression on day 14 post electroporation.
FIGS. 17A-17D are FACs density plots of T cells on day 7 post electroporation.
FIGS. 18A-18B are FACs density plots of T cells on day 14 post electroporation.

Test [4] relates to Primary human T cells. The test is described as follows: Percent recovery of viable transfected cells 24 hr post electroporation by flow cytometry. The conditions noted are these: for percent recovery of the transfected cells: 24 hr post electroporation, DNase 10 μg/ml in recovery media. Type of test: cell-based. Here is the method: This example examined the effect of DNase on post-electroporation T cell survival as well as transfection efficiency. Primary human T cells were cultured and stimulated with IL-2, IL-7, and IL-15. Later the T cells were either pulsed (control) or transfected with 1.5 μg of pMND-GFP plasmid (about 7.5 kb) at 36 hr or 48 hr post-stimulation. For comparison, DNase was added to recovery media of one group of transfected cells at 10 μg/ml. Cells were incubated in this recovery media following electroporation for 30 min. And after recovery, 2 times volume of complete media was added without any wash step (therefore diluted DNase remained in the media).
Cells were analyzed 24 hr post electroporation by flow cytometry to determine the percentage of recovered viable cells, as shown in FIG. 15A. FIG. 15B is a graph showing the percent recovery of the transfected cells in each group. DNase increased percent recovery in both “36 hr pMND-GFP” group, where cells were transfected with pMND-GFP plasmid at 36 hr post-stimulation, and “48 hr pMND-GFP” group, where cells were transfected with pMND-GFP at 48 hr post-stimulation.
Background: Flow cytometry measures light scatter and fluorescence of single cells or particles in a stream.

In test [5] the test system is T cells. The test is described as follows: Viable cell count and percentage of viable cells post-electroporation with supplements. The conditions noted are these: day 7 post-electroporation; NAC 10 mM for duration, anti-IFNAR2 antibody once at 10 μg/ml. Type of test: cell-based. Here is the method: This example examined the effects of treatment with NAC, Akt VIII inhibitor, or anti-IFNAR2, on post-electroporation T cell survival as well as transfection efficiency. In these experiments, 2×10^6 cells in 100 μl were electroporated non-sequentially at 36 hr post-stimulation. After electroporation, the cells were recovered for 15 min, and then split equally among 5 different supplement conditions, as listed in Table 5. NAC was added to the medium at 10 mM for duration, Akt VIII inhibitor at 8 μM for duration, and anti-IFNAR2 antibody was added to the media once at 10 μg/ml. “Nuc” in Table 2 and FIGS. 22A-22D denotes the condition where exogenous DNA was added to be inserted into cell genome at 20 μg (“+20 μg), 35 μg (“+35 μg), or 50 μg (“+50 μg”).
FIG. 23A-FIG. 23C show graphs of viable cell count in each condition on day 2, 5, and 7 post-electroporation, respectively. FIG. 23D-FIG. 23F show graphs of percentage of viable cells in each condition on day 2, 5, and 7 post-electroporation, respectively.

[6] abbreviates: donor 055330, 36 hours post stimulation or 36 hours post stimulation and 6 hours post initial electroporation.
[7] abbreviates: donor 119866, 36 hours post stimulation or 36 hours post stimulation and 6 hours post initial electroporation.
Where [8] appears, read: donors 055330 and 119866 at 24 hours post initial electroporation, donor 120534 at 36 hours post stimulation or plus 6 hours (FIG. 21).
Where [9] appears, read: T cells transfected on day 1, day 14 post electroporation, plasmid donor, Cas9, gRNA.
The mark [10] stands for this setting: day 14 post electroporation of plasmid donor on day 0 or 1, with vs without DNase.

“Also recorded” adds a separate entry of the source.

DNase: the “cell clumping and floating dead cells” value in test [1] was “no cell clumps were visible; also recorded: did not show cell clumping or floating cell corpses”. Further, the “transgene (mTCR) expression, electroporation efficiency” value (from here on “transgene (mTCR) expression”) in test [2] (setting [6]) is listed as “increased”. Further, in test [2] (setting [7]), the “transgene (mTCR) expression” value was “increased”. In addition, in test [2] (setting [8]), the “transgene (mTCR) expression” value is listed as “increased”. In test [3], the “stable transgene expression (percent GFP or mTCR)” value is given as “increased”, the “transgene expression (day 7 percent GFP or mTCR expression)” value is listed as “increased” and the “transgene expression (percent GFP+ or mTCR+ cells)” value is “increased”. For the same compound, in test [3] (setting [9]), the “GFP expression (percentage of GFP+ cells)” value is recorded as “promoted” and the “mTCR expression (percentage of mTCR+ cells)” value is reported as “promoted”. For the same compound, in test [3] (setting [10]), the “integration efficiency, percentage of GFP-expressing cells” value is “increased” and the “integration efficiency, percentage of mTCR-expressing cells” value is recorded as “increased”. In test [4] (24 hours post-electroporation of a plasmid, culture with vs without DNase), the “lymphocyte survival after transfection” value is listed as “increased”. Also, the “percent recovery of the transfected cells” value in test [4] (pMND-GFP plasmid at 36 hr post-stimulation) is “increased”. Also, the “percent recovery of the transfected cells” value in test [4] (pMND-GFP plasmid at 48 hr post-stimulation) is recorded as “increased”.

Take `O=C(Nc1ccc(Br)cc1)c1ccc(Br)c(S(=O)(=O)NCc2ccccc2)c1` [RS-1, 3-((benzylamino)sulfonyl)-4-bromo-N-(4-bromophenyl)benzamide]: the “transgene (mTCR) expression” value in test [2] (setting [6]) is “increased”. Further, in test [2] (setting [7]), the “transgene (mTCR) expression” value is listed as “increased”. In addition, the “transgene (mTCR) expression” value in test [2] (setting [8]) was “increased”. For the same compound, in test [3], the “stable transgene expression (percent GFP or mTCR)” value is listed as “increased”, the “transgene expression (day 7 percent GFP or mTCR expression)” value is “increased” and the “transgene expression (percent GFP+ or mTCR+ cells)” value is “increased”.

For `CC(=O)N[C@@H](CS)C(=O)O` [NAC, N-acetyl-cysteine], the cell viability entry in test [5] is reported as “increased”.
